Here are results for 8 compounds from patent US10421973B2, “Chemically inducible cucumber mosaic virus protein expression system” (THE REGENTS OF THE UNIVERSITY OF CALIFORNIA, priority 2006, dated 2019).

Data set [1] relates to N. benthamiana leaves. The data set is described as follows: Induction method study, total rAAT ELISA in intact or detached N. benthamiana leaves (CMViva + p19). The data set is classed as in vivo, Nicotiana benthamiana. The protocol:
(§1) Non-transgenic/wildtype N. benthamiana seedlings were grown from seed in soil-filled 10-cm pots. Seedlings were transplanted to individual 10-cm pots until plants were 10 to 15 cm in height, at which time plants were ready for infiltration. All plants were grown in a greenhouse with a 16-hour photoperiod and a temperature range of 18° C. (nighttime low) to 30° C. (daytime high). To prepare for evaluation of protein expression in detached leaves, plant leaves were cut at the petiole and stored dry in unsealed plastic bags for one hour before infiltration to simulate a situation where plants would be harvested from a field and transported to a facility for infiltration.
(§2) A. tumefaciens cells containing the appropriate plasmids were grown for 24 hours in 2 mL of Luria-Bertani (LB) broth containing appropriate selection antibiotics. Approximately 0.5 mL was then transferred to 25 mL of LB broth supplemented with 10 μL of 100 mM acetosyringone (3′, 5′-dimethoxy-4′-hydroxyacetophenone) (Aldrich Chemicals, Milwaukee, Wis.) and 0.5 ml of 1 M 2-(4-morpholino) ethanesulfonic acid (MES) buffer (pH 5.6), and grown overnight at 28° C. with shaking until the cell density (optical density, OD600) reached 1.0 absorbance units. Cells were harvested by centrifugation at 2600 g, resuspended in 10 mL of sterile de-ionized water, and the cell density was adjusted to 1.0 absorbance units. Five milliliters of the A. tumefaciens cell suspension for CMViva was mixed with 5 mL of A. tumefaciens cells containing the p35S:p19 plasmid, and then supplemented with magnesium chloride to reach a final concentration of 10 mM and acetosyringone to 150 µM, and incubated at room temperature for five hours. Bacterial suspensions were then pressure infiltrated onto the abaxial side of either intact or detached N. benthamiana leaves using a 3-mL sterile syringe without a needle at three to four points to sufficiently cover the entire leaf (approximately 1 mL of bacterial suspension per 0.5 g fresh weight of tissue). No A. tumefaciens solution was applied to plants selected as healthy control plants.
(§3) Intact plants that had been infiltrated were grown in the greenhouse for the duration of the experiment. Leaves that had been detached were stored in a humidity chamber following infiltration to maintain the health of the plant material. The humidity chamber was prepared by soaking 400 g of Perlite soil additive (E.B. Stone) in 1.5 L of de-ionized water. Excess water was decanted and the saturated Perlite was packed to form a 3-cm thick bed on the bottom of an 11.4 L rectangular Tupperware container. Plant leaves were then placed 7 cm above the Perlite bed on top of racks, and the chamber was then sealed and placed in the dark at 21° C. The humidity chamber was prepared five hours before infiltration to ensure a humid environment upon introduction of the plant leaves.
(§4) Twelve hours after infiltration, an induction solution composed of 50 μM 17-β-estradiol (Sigma Inc., St. Louis, Mo.) in 0.05% Tween 20 was applied to all infiltrated N. benthamiana leaves using either cotton tipped applicators to both sides of the leaves or a 3-mL sterile syringe without a needle pressure injected onto the abaxial side of the leaves. To evaluate the effect of multiple inducer applications, the induction solution was applied to half of the total number of infiltrated leaves in the same manner (directly after sampling) at 2-day (48±1 h) increments after the initial induction. No inducer solution was applied at any time to the healthy control plants.
(§5) Plant leaves were sampled on the infiltrated/induced areas 2 days (48±1 h) post-induction (60±1 h post-infiltration) by collecting two 7-mm diameter discs at various locations on each leaf and combining the discs to approximate an average leaf sample. Three leaves from different plants were sampled for analysis of intact plant leaves and four leaves were used for analysis of detached plant leaves. […]
For orientation: ELISA stands for enzyme-linked immunosorbent assay.

The subject of data set [2] is porcine pancreatic elastase (PPE). Nature of the data set: Induction method study, functional rAAT ELISA in intact or detached N. benthamiana leaves (CMViva + p19). The data set is classed as biochemical. The protocol: as §1, §2, §3, §4, §5
Data set [3] deals with proteases in the cell cultured medium. The data set is described as follows: Effect of protease inhibitors and additives on human AAT degradation in cell-free CMViva conditioned medium. To be noted: for effect of medium additive on stabilizing functional human AAT: cell-free conditioned medium, data not shown; for effect of protease inhibitor on human AAT degradation: 10 mM in 7 day old cell-free CMViva conditioned medium. The data set is classed as biochemical, Nicotiana benthamiana. Here is the method: (§6) For the investigation of human AAT stability in plant cell cultures, human AAT was added to the cell-free conditioned medium to a final concentration of 2 mg/L and distributed into 6-well-plates. The cell-free conditioned medium was prepared by centrifuging and filtering (through a 0.22 μm filter) the plant cells from 7 day old CMViva cell cultures (pH 5.1). Various protease inhibitors including 2-mercaptoethylamine-HCl (aminopeptidase inhibitor), AEBSF (serine and cysteine proteases inhibitor), benzamidine-HCl (serine protease inhibitor), and EDTA (a metal ion chelator and metalloproteinase inhibitor) were added to the conditioned medium to a final concentration of 10 mM to assess their ability to retard the degradation of human AAT. In another treatment, the conditioned medium was also heated (in boiling water for 30 minutes) or the medium pH was adjusted (from original pH 5.1 to 6.4˜6.6) prior to the addition of human AAT to investigate the human AAT stability. The 6-well-plates containing human AAT in various conditioned medium (4 mL/well) were incubated on an orbital shaker at 140 rpm and 25[…] under ambient light. Samples were taken daily and stored at −80° for further ELISA, western blotting and band shift analysis.

For data set [4], the system named is transgenic plant cell cultures. The data set is described as follows: Effect of stabilizing agents and protease inhibitors on rAAT production in transgenic plant cell cultures. The data set is classed as cell-based, Nicotiana benthamiana. The protocol:
The effect of stabilizing agents (bacitracin, PVP, BSA, Pluronic F-68, and mannitol) and protease inhibitors (2-mercaptoethylamine-HCl, AEBSF, benzamidine-HCl and EDTA) on the rAAT production in transgenic plant cell cultures was also evaluated.

How the values of data set [5] were obtained: as §6
[6] abbreviates: detached leaves, single pressure injection.
Setting [7] is: intact leaves, single pressure injection.
[8] abbreviates: intact leaves, single topical application, four days after induction.
Where [9] appears, read: transgenic plant cell cultures, data not shown.
[10] abbreviates: 5 day incubation, fresh sterile KCMS medium, pH 5.8.

“And” between values parts separate entries of the source, which are not always exact repeats. Identical values can stand only once. “Also recorded” adds a separate entry of the source. Like-named read-outs stand apart in the source and are kept apart here. Where a SMILES comes first, the peptide text is derived from it. Bridges are numbered along the chain shown (N, C = ends). [ ]: non-standard residue; d: D form. The star is where a group is joined. Ileψ(thiazoline)Cys = CC[C@H](C)[C@H](N)C1=N[C@H](C(=O)*)CS1; dOrn = NCCC[C@@H](N)C(=O)O

As to “rAAT: recombinant α1-antitrypsin, a human blood protein, produced in N. benthamiana”, the “maximum total rAAT” value in data set [1] (detached leaves, multiple topical applications) is 3.5±0.15 % of TSP; in data set [1] (detached leaves, single topical application), 2.5±0.08 % of TSP; in data set [1] (intact leaves, multiple pressure injections, 6 days after induction), 5.8±0.46 % of TSP; in data set [1] (intact leaves, single topical application, six days after induction), 1.9±0.15 % of TSP. The “total rAAT” value was 2.4±0.18 % of TSP in data set [1] (setting [6]), 3.7±0.31 % of TSP in data set [1] (setting [7]) and 1.4±0.17 % of TSP in data set [1] (setting [8]). Moreover, the “increase of total rAAT, multiple compared to single treatment” value in data set [1] (intact leaves, pressure injection) is on record as 57%; in data set [1] (intact leaves, topical application) it was 120%. For the same compound, in data set [1] (intact plants), the “more total rAAT, single pressure injection compared to single topical application” value was determined as 95%. Further, the “maximum total rAAT in detached leaves above that in intact leaves” value in data set [1] (single topical application) is reported as 0.6 % of TSP. The “functional rAAT higher with single pressure injection than single topical application” value in data set [2] (detached leaves) stood at 80%. Moreover, the “increase of maximum functional rAAT, inducer applied topically every two days” value in data set [2] (detached leaves) was found to be 1.8 fold. The “maximum percentage of functional rAAT to total rAAT” value in data set [2] (detached leaves, injection method, two days after induction) is 85-87%; in data set [2] (detached leaves, topical application, two days after induction) it was 55-65%. Besides, the “functional rAAT” value in data set [2] (detached leaves, multiple topical applications, four days post induction) was 1.3±0.05 % of TSP; in data set [2] (setting [6]) it was 1.3±0.06 % of TSP; in data set [2] (detached leaves, single topical application, four days post induction), 0.71±0.04 % of TSP. Moreover, the “increase of maximum functional rAAT, multiple pressure injections compared to single topical application” value in data set [2] (intact leaves) is “up to 3 fold”. Further, the “percentage of total rAAT that is functional” value in data set [2] (intact leaves, eighth day after induction, any of the treatments) is “less than 15%”; in data set [2] (intact leaves, pressure injection, two days after induction) it was 83-90% and > 85%. In addition, the “maximum functional rAAT” value in data set [2] (intact leaves, multiple pressure injections) is given as 2.4±0.09 % of TSP; in data set [2] (intact leaves, multiple topical applications), 1.6±0.08 % of TSP; in data set [2] (setting [7]), 1.8±0.09 % of TSP; in data set [2] (setting [8]), 0.80±0.04 % of TSP. The “functional rAAT still present as % of the maximum level” value in data set [2] (intact leaves, six days after induction, single induction treatment) is “less than 40%”. Besides, the “more functional rAAT, single pressure injection compared to single topical application” value in data set [2] (intact plants) came to 125%. Further, the “functional rAAT in detached leaves less than in intact leaves” value in data set [2] (multiple topical applications, four days post induction) is on record as 0.3 % of TSP; in data set [2] (single topical application, four days post induction), 0.09 % of TSP.
With `CC[C@H](C)[C@H](N)C1=N[C@H](C(=O)N[C@@H](CC(C)C)C(=O)N[C@H](CCC(=O)O)C(=O)N[C@H](C(=O)N[C@H]2CCCCNC(=O)[C@H](CC(N)=O)NC(=O)[C@@H](CC(=O)O)NC(=O)[C@H](Cc3cnc[nH]3)NC(=O)[C@@H](Cc3ccccc3)NC(=O)[C@H]([C@@H](C)CC)NC(=O)[C@@H](CCCN)NC2=O)[C@@H](C)CC)CS1` [bacitracin] ({Ileψ(thiazoline)Cys}-L[dE]IK[dOrn]I[dF]H[dD]N; lactam 4-C), the “effect of medium additive on stabilizing functional human AAT” value in data set [3] is “did not show significant effect”. For the same compound, the “effect on total and functional rAAT production” value in data set [4] (setting [9]) is “no significant improvement”.
For `NCCc1ccc(S(=O)(=O)F)cc1` [AEBSF], the “effect of protease inhibitor on human AAT degradation” value in data set [3] is “highest ability to stabilize functional human AAT levels; also recorded: slightly inhibit human AAT degradation”. In addition, the “effect on total and functional rAAT production” value in data set [4] (setting [9]) is given as “no significant improvement”.
For `Cl.NCCS` [2-mercaptoethylamine-HCl] the same measures were “slightly inhibit human AAT degradation” and “no significant improvement”.
Take `O=C(O)CN(CCN(CC(=O)O)CC(=O)O)CC(=O)O` [EDTA]: in data set [4], the “effect on total and functional rAAT production” value is “no significant improvement”.
As for `OC[C@@H](O)[C@@H](O)[C@H](O)[C@H](O)CO` [mannitol], the “effect of medium additive on stabilizing functional human AAT” value in data set [3] is “did not show significant effect”. In addition, the “effect on total and functional rAAT production” value in data set [4] (setting [9]) is listed as “no significant improvement”.
On to “human AAT: commercially available human AAT (Calbiochem) used as standard and spiked into media”, for which the “decline of total human AAT” value in data set [5] (5 day incubation, 7 day old cell-free CMViva culture medium, pH about 5.0) is recorded as 60%; in data set [5] (setting [10]), “about 25%”; in data set [5] (5 day period, CMViva culture medium adjusted to pH 6.4), “about 25%”. The “decline of functional human AAT” value in data set [5] (setting [10]) is around 50%. Further, the “functionality of human AAT” value in data set [5] (11 day-old cell-free CMViva medium adjusted to pH 4-5) was “accelerates the loss of functionality”; in data set [5] (11 day-old cell-free CMViva medium adjusted to pH 7-8), “maintains the functionality”. The “functional human AAT as % of the initial concentration” value in data set [5] (after 5 days, heated CMViva culture medium) was found to be 70%. For the same compound, the “functional human AAT level” value in data set [5] (within 2 days, 7 day old cell-free CMViva culture medium, pH about 5.0) is “negligible”.
`Cl.N=C(N)c1ccccc1` [benzamidine-HCl]: the “effect on total and functional rAAT production” value in data set [4] (setting [9]) is “no significant improvement”.
